Reference: publication PMC12094946, “Evidence of focusing the MHC class I immunopeptidome by tapasin” (Frontiers in Immunology, 2025)

Columns and labels:
HLA-B*44:02 = HLA-B*44:02 (Homo sapiens, UniProt P01889, A223V/A65T/A93T/A95T/D201E/D98Y/E176V/E187L/E204Q/E69K/G107R/H137Y/K202T/L105A/L119I/N104T/N87E/Q56L/Q94N/R106L/R155S/R180D/S101N/S121R/S35A/S48T/T118I/V36M/W191S/Y140D/Y91S); test: Immunopeptidome analysis (W6/32 isolation, LC-MS/MS) of 721.220 cells reconstituted with human tapasin; format: cell-based; settings: sheet Overlaps; 1/0 flag; 5% peptide FDR
Experimental: (§1) Approximately 5x10^8 cells were grown for each cell line, and cell pellets were snap frozen. Cell lysis and MHC-I peptide isolation were performed as previously described in detail ([30]). Briefly, cell pellets were lysed by cryomilling and incubation in a non-denaturing lysis buffer (0.5% Igepal CA-630, 50 mM Tris pH 8.0, 150 mM NaCl, 1 x Roche Complete protease inhibitor cocktail). MHC-I complexes were captured from the lysate using 7.5 mg of anti-MHC-I antibody, W6/32, immobilized on protein A Sepharose and subsequently dissociated with 10% acetic acid. The peptides were fractionated and separated from β2m and heavy chain components by reversed-phase high performance liquid chromatography (RP-HPLC). The peptide containing fractions were concentrated and chromatographically distant fractions were combined to generate nine pools, reconstituted in 15 µL 0.1% formic acid containing 500 fmol iRT reference peptides ([31]). Pools were analyzed by liquid chromatography-tandem mass spectrometry (LC-MS/MS) using a SCIEX 5600+ mass spectrometer, equipped with a NanoUltra cHiPLC system (Eksigent) and a Nanospray III ion source. Peptides were trapped on a cHiPLC trap column (3 µm, ChromXP C18CL, 120 Å, 0.5 mm x 200 µm), by loading at 5 µL/min in 0.1% formic acid, 2% acetonitrile, prior to elution over a cHiPLC column (3 µm, ChromXP C18CL, 120 Å, 15 cm x 75 µm) at 300 nL/min with increasing acetonitrile over 75 minutes. The mass spectrometer was operated as follows: ion spray voltage 2400 V, curtain gas 25 l/min, ion source gas 20 l/min, interface heater temperature 150°C, MS1 range 200-1800, MS1 accumulation time 200 ms, MS2 range 60-1800, and MS2 accumulation time 150 ms. The top 20 ions meeting the following criteria were selected for MS/MS fragmentation with rolling collision energy: >200 Da, charge state +2 to +5, >40 cps, dynamic exclusion 30 seconds after two occurrences. Mass spectra were interpreted by database search against the Uniprot/SwissProt ([32]) reviewed human proteome accessed October 2018 using PEAKS Studio XPRO (10.6 build, Bioinformatics Solutions Inc.) and a contaminant database contain the iRT reference peptide sequences using the following parameters: Instrument Triple TOF, fragmentation CID, parent mass error tolerance 25ppm, fragment mass error tolerance 0.1Da, enzyme none, digest mode unspecific, variable modifications Oxidation (M) +15.99 and Deamidation (NQ) +0.98, max variable modifications per peptide 3, False discovery rate (FDR) estimation enabled. A 5% peptide FDR was applied. Peptides identified from similar isolations of MHC class II from closely related 721.221 derived cell lines were excluded from downstream analyses.

HLA-B*44:05 = HLA-B*44:05 (Homo sapiens, UniProt P01889, A223V/A65T/A93T/A95T/D201E/D98Y/E176V/E187L/E204Q/E69K/G107R/H137Y/K202T/L105A/L119I/N104T/N87E/Q56L/Q94N/R106L/R155S/R180D/S101N/S121R/S35A/S48T/T118I/V36M/W191S/Y91S); test: as above; format: cell-based; settings: sheet Overlaps; 1/0 flag; 5% peptide FDR
Experimental: as §1

HLA-B*44:05-W147A = test: as above; format: cell-based; settings: sheet Overlaps; 1/0 flag; 5% peptide FDR
Experimental: as §1

HLA-A*02:01-fos = HLA-A*02:01-fos (Homo sapiens, UniProt P04439, D140Y/D185E/D98H/E176V/E277Q/G131W/G231S/I119V/I121R/I166T/I218V/L300P/L318F/N151K/N90K/P208A/P217A/Q86G/Q94H/R138H/R169H/T345S); test: In vitro peptide competition experiments (fluorescence polarization)

B4402 (peptide identified in immunopeptidome) (HLA-B*44:02)	B4405 (peptide identified in immunopeptidome) (HLA-B*44:05)	Substance	B4405 W147A (peptide identified in immunopeptidome) (HLA-B*44:05-W147A)	fold lower than unlabeled FLPSDCFPSV (HLA-A*02:01-fos; index peptide IC50 compared with IC50 of unlabeled FLPSDCFPSV)	IC50 value of the index peptide (HLA-A*02:01-fos; suggested by the divergent effects of TAPBPR on the ability of peptides to compete for binding to HLA-A*02:01)
1	1	AEMDGAAAAKQVM [peptide identified within the immunopeptidomes]	0		
1	1	EEVDLSKDIQHW [peptide identified within the immunopeptidomes]	0		

Further lines, the substance ahead of its results:

Substance	B4402 (peptide identified in immunopeptidome) (HLA-B*44:02)	B4405 (peptide identified in immunopeptidome) (HLA-B*44:05)	B4405 W147A (peptide identified in immunopeptidome) (HLA-B*44:05-W147A)	fold lower than unlabeled FLPSDCFPSV (HLA-A*02:01-fos; index peptide IC50 compared with IC50 of unlabeled FLPSDCFPSV)	IC50 value of the index peptide (HLA-A*02:01-fos; suggested by the divergent effects of TAPBPR on the ability of peptides to compete for binding to HLA-A*02:01)
AEDALHNLDRKW [peptide identified within the immunopeptidomes]	1	1	0		
AEIGEGAYGKVF [peptide identified within the immunopeptidomes]	1	1	0		
FLPSDC^TAMRAFPSV				approximately 20 fold	around 3 µM
SELALESQTKTY [peptide identified within the HLA-B*44:02 immunopeptidome]	1	0	0		
